From patent US11440907B1 (Merck Patent GmbH, priority 2018, dated 2022)

Columns and labels:
Format in all cases: cell-based
[1] = system: XBP1(u)-luciferase splicing reporter in HepG2 hepatoma cells; assay: HepG2 XBP1 reporter assay (XBP1(u)-Luc); conditions: Homo sapiens, 6 hours after compound addition; for IC50: Table 4; for EC50: Table 3, read-out: XBP1-luc HepG2 1 EC50
[2] = system: NCI-H929 (Multiple myeloma cells); assay: Cell viability (ATPLite) in NCI-H929; conditions: Homo sapiens, 96 hours
Experimental: (§1) Cells were removed from liquid nitrogen storage, thawed and expanded in appropriate growth media. Once expanded, cells were seeded in 384-well tissue culture treated plates at 500 cells per well. After 24 hours, cells were treated for either 0 hours or treated for 96 hours with a testing compound (at the concentrations of 100 nM and 2 uM). At the end of either 0 hours or 96 hours, cell status was analyzed using ATPLite (Perkin Elmer) to assess the biological response of cells to the testing compound.

[3] = system: DU4475 (breast cancer cells); assay: Cell viability (ATPLite) in DU4475; conditions: Homo sapiens, DU-4475, 96 hours
Experimental: as §1

[4] = system: β-catenin-TCF-mediated reporter transcription activity in Colo 205 cells; assay: Colo 205 reporter assay (TCF/LEF promoter-driven firefly luciferase); conditions: Homo sapiens; Colo 205 TCF/LEF luciferase reporter, 5 hours after compound addition, 384 well; read-out: Colo205 IC50
[5] = system: intracellular calcium flux in Colo-205 cells; assay: Calcium flux assay (FLIPR Calcium 5 Assay Kit, FLIPR3); conditions: Homo sapiens, 0.6 h, calcium flux measured over 36 minutes, read-out: Colo 205 Calcium Flux assay 384w Boston Ca assay FLIPR3 Colo EC50
Experimental: Compounds described herein induced ER stress by causing intracellular calcium flux. Calcium flux was measured in Colo-205 cells using the FLIPR® Calcium 5 Assay Kit according to manufacturer's protocol (Molecular Devices, Cat. #R8186) on a FLIPR3 system (Molecular Devices). Calcium flux is measured over 36 minutes. The Colo-205 calcium flux assay data are summarized in Table 3: A<0.6 μM; 0.6 μM≤B<2.0 μM; 2.0 μM≤C<10.0 μM; D≥10.0 μM.

SMILES	IC50 [1]	IC50 [2]	IC50 [3]	IC50 [4]	EC50 [1]	EC50 [5]
CCOc1cc(Cl)c(C2COCCCN2c2cc(C)nc(N)n2)cc1Cl (centres unmarked) [C-41]	< 0.6 µM	10 to 25 µM	< 1 µM			
COc1cc(C2COCCCN2c2cc(C)nc(N)n2)c(Cl)cc1O (centres unmarked) [C-14]	0.6 to 2 µM	1 to 10 µM	< 1 µM			
Cc1cc(N2CCCOCC2c2ccc(CS(C)(=O)=O)cc2F)nc(N)n1 (centres unmarked) [C-11, 4-[3-(2-Fluoro-4-methanesulfonylmethyl-phenyl)-[1,4]oxazepan-4-yl]-6-methyl-pyrimidin-2-ylamine]	0.6 to 2 µM	< 1 µM	< 1 µM			
COc1cc(Cl)c(C2COCCCN2c2cc(C)nc(N)n2)cc1OC (centres unmarked) [C-15]	0.6 to 2 µM	< 1 µM	< 1 µM			
Cc1cc(N2CCCOCC2c2cc(O)c(O)cc2Cl)nc(N)n1 (centres unmarked) [C-22]		≥ 25 µM	≥ 25 µM			
CCOc1cc(Cl)c(C2COCCCN2c2cc(C)nc(N)n2)cc1OCC (centres unmarked) [C-40]	< 0.6 µM	1 to 10 µM	< 1 µM			
Cc1cc(N2CCCOCC2c2cc(Cl)c(C)cc2Cl)nc(N)n1 (centres unmarked) [C-3]	0.6 to 2 µM	1 to 10 µM	1 to 10 µM			
Cc1cc(N2CCCOCC2c2cc(C(F)(F)F)c(N)cc2Cl)nc(N)n1 (centres unmarked) [C-31]	< 0.6 µM	1 to 10 µM	< 1 µM			
Cc1cc(N2CCCOC[C@@H]2c2ccc(N3CCC(C)(O)CC3)cc2Cl)nc(N)n1 [C-151]	< 0.6 µM	< 1 µM	< 1 µM			
Cc1cc(N2CCCOCC2c2cc(F)c(-c3cccnc3)cc2Cl)nc(N)n1 (centres unmarked) [C-33]		1 to 10 µM	1 to 10 µM			
Cc1cc(N2CCCOC[C@@H]2c2ccc(NC3COC3)cc2Cl)nc(N)n1 [C-152]	< 0.6 µM	< 1 µM	< 1 µM			
Cc1cc(N2CCCOCC2c2cc(F)c(Cl)cc2Cl)nc(N)n1 (centres unmarked) [C-18]	2 to 5 µM	1 to 10 µM	1 to 10 µM			
CCNc1cc(Cl)c(C2COCCCN2c2cc(C)nc(N)n2)cc1C (centres unmarked) [C-21]	< 0.6 µM	< 1 µM	< 1 µM			
Cc1cc(N2CCCOCC2c2cc(F)c(O)cc2Cl)nc(N)n1 (centres unmarked) [C-30]	0.6 to 2 µM	1 to 10 µM	1 to 10 µM			
Cc1cc(N2CCCOCC2c2cc(CS(C)(=O)=O)ccc2Cl)nc(N)n1 (centres unmarked) [C-12, 4-[3-(2-Chloro-5-methanesulfonylmethyl-phenyl)-[1,4]oxazepan-4-yl]-6-methyl-pyrimidin-2-ylamine]	0.6 to 2 µM	1 to 10 µM	< 1 µM			
Cc1cc(N2CCCOCC2c2cc(Cl)c(O)cc2Cl)nc(N)n1 (centres unmarked) [C-7]	0.6 to 2 µM	1 to 10 µM	1 to 10 µM			
Cc1cc(N2CCCOCC2c2cc3c(cc2Cl)NCC3)nc(N)n1 (centres unmarked) [C-1]	< 0.6 µM	< 1 µM	< 1 µM			
Cc1cc(N2CCCOCC2c2cc3c(cc2Cl)CCN3)nc(N)n1 (centres unmarked) [C-37]		< 1 µM	< 1 µM			
Cc1cc(N2CCCOCC2c2cc3c(cc2Cl)NC(=O)CO3)nc(N)n1 (centres unmarked) [C-35]	< 0.6 µM	< 1 µM	< 1 µM			
Cc1cc(N2CCCOCC2c2cc(F)c(C)cc2Cl)nc(N)n1 (centres unmarked) [C-2]	0.6 to 2 µM	1 to 10 µM	1 to 10 µM			
Cc1cc(N2CCCOC[C@H]2c2ccc(S(C)(=O)=O)cc2Cl)nc(N)n1 [C-155]		≥ 25 µM	≥ 25 µM			
Cc1cc(N2CCCOCC2c2ccc(P(C)(C)=O)cc2Cl)nc(N)n1 (racemic) [I-202, (+/−)-4-[3-(2-chloro-4-dimethylphosphoryl-phenyl)-1,4-oxazepan-4-yl]-6-methyl-pyrimidin-2-amine]				0.3 to 1 µM	≥ 5 µM	0.6 to 2 µM

SMILES	IC50 [1]	IC50 [2]	IC50 [3]	IC50 [4]	EC50 [1]	EC50 [5]
Cc1cc(N2CCCOC[C@@H]2c2cc3nccn3cc2Cl)nc(N)n1 (single isomer, unassigned) [I-221, 4-[3-(6-chloroimidazo[1,2-a]pyridin-7-yl)-1,4-oxazepan-4-yl]-6-methyl-pyrimidin-2-amine]				< 0.3 µM	< 0.6 µM	< 0.6 µM
Cc1cc(N2CCCOC[C@H]2c2cc(NC(=O)C(F)(F)F)ccc2Cl)nc(N)n1 (single isomer, unassigned) [I-176]				0.3 to 1 µM	0.6 to 2 µM	< 0.6 µM
CCS(=O)(=O)c1ccc(C2COCCCN2c2cc(C)nc(N)n2)c(Cl)c1 (centres unmarked) [I-297]				0.3 to 1 µM	< 0.6 µM	< 0.6 µM
Cc1cc(N2CCCOCC2c2cc(N3CCCC3)ccc2Cl)nc(N)n1 (racemic) [I-199, (+/−)-4-[3-(2-chloro-5-pyrrolidin-1-yl-phenyl)-1,4-oxazepan-4-yl]-6-methyl-pyrimidin-2-amine]				0.3 to 1 µM	0.6 to 2 µM	< 0.6 µM
Cc1cc(N2CCCOCC2c2cc3nccn3cc2Cl)nc(N)n1 (racemic) [I-191, 4-(3-(6-chloroimidazo[1,2-a]pyridin-7-yl)-1,4-oxazepan-4-yl)-6-methylpyrimidin-2-amine]				0.3 to 1 µM	0.6 to 2 µM	< 0.6 µM
Cc1cc(N2CCCOCC2c2cc(Cl)c(Cl)cc2Cl)nc(N)n1 (centres unmarked) [C-34]	≥ 5 µM	1 to 10 µM	1 to 10 µM			
COc1ccc(F)cc1[C@H]1COCCCN1c1cc(C)nc(N)n1 [I-288]				< 0.3 µM	2 to 5 µM	< 0.6 µM
COc1cc(C2COCCCN2c2cc(C)nc(N)n2)c(Cl)cc1OC(C)C (centres unmarked) [C-24]	< 0.6 µM	1 to 10 µM	< 1 µM			
Cc1cc(N2CCCOCC2c2cc3c(cc2Cl)OCCO3)nc(N)n1 (centres unmarked) [C-6]	0.6 to 2 µM	1 to 10 µM	< 1 µM			
Cc1cc(N2CCCOC[C@@H]2c2ccc(NC3COC3)cc2Cl)nc(N)n1 [I-215, 4-[(3S)-3-[2-chloro-4-(oxetan-3-ylamino)phenyl]-1,4-oxazepan-4-yl]-6-methyl-pyrimidin-2-amine]				< 0.3 µM	< 0.6 µM	< 0.6 µM
COc1ccc(Cl)cc1C1CCCCCN1c1cc(C)nc(N)n1 (centres unmarked) [I-21, 4-(2-(5-chloro-2-methoxyphenyl)azepan-1-yl)-6-methylpyrimidin-2-amine]				0.3 to 1 µM	2 to 5 µM	0.6 to 2 µM
Cc1cc(N2CCCOCC2c2ccc(NC(=O)C3CC3)cc2Cl)nc(N)n1 (centres unmarked) [I-305]				0.3 to 1 µM	< 0.6 µM	< 0.6 µM
Cc1cc(N2CCCOCC2c2ccc(CS(C)(=O)=O)cc2Cl)nc(N)n1 (racemic) [I-208, (+/−)-4-(3-(2-chloro-4-((methylsulfonyl)methyl)phenyl)-1,4-oxazepan-4-yl)-6-methylpyrimidin-2-amine]				< 0.3 µM	< 0.6 µM	< 0.6 µM
Cc1cc(N2CCCOC[C@@H]2c2ccc(N3CCC4(CCOC4)C3)cc2Cl)nc(N)n1 (stereo partly drawn) [I-219, 4-[(3S)-3-[2-chloro-4-(2-oxa-7-azaspiro[4.4]nonan-7-yl)phenyl]-1,4-oxazepan-4-yl]-6-methyl-pyrimidin-2-amine]				0.3 to 1 µM	< 0.6 µM	< 0.6 µM
Cc1cc(N2CCCOC[C@@H]2c2ccc(CS(C)(=O)=O)cc2Cl)nc(N)n1 (single isomer, unassigned) [I-224]				< 0.3 µM	< 0.6 µM	< 0.6 µM
CCC(=O)Nc1ccc(C2COCCCN2c2cc(C)nc(N)n2)c(Cl)c1 (centres unmarked) [I-306]				0.3 to 1 µM	< 0.6 µM	< 0.6 µM
Cc1cc(N2CCCOCC2c2cc(NC(=O)CC3COC3)ccc2Cl)nc(N)n1 (racemic) [I-185, (+/−)-N-[3-[4-(2-amino-6-methyl-pyrimidin-4-yl)-1,4-oxazepan-3-yl]-4-chloro-phenyl]-2-(oxetan-3-yl)acetamide]				0.3 to 1 µM	2 to 5 µM	< 0.6 µM
COc1ccc(C2CCCCCN2c2cc(C)nc(N)n2)c(OC)c1 (racemic) [I-51, (+/−)-4-[2-(2,4-dimethoxyphenyl)azepan-1-yl]-6-methyl-pyrimidin-2-amine]				0.3 to 1 µM	< 0.6 µM	< 0.6 µM
CC(=O)Nc1ccc([C@H]2COCCCN2c2cc(C)nc(N)n2)c(Cl)c1 (single isomer, unassigned) [I-162]				< 0.3 µM	< 0.6 µM	< 0.6 µM
Cc1cc(N2CCCOCC2c2cc(C(=O)NC3CC3)ccc2Cl)nc(N)n1 (racemic) [I-172, (+/−)-3-(4-(2-amino-6-methylpyrimidin-4-yl)-1,4-oxazepan-3-yl)-4-chloro-N-cyclopropylbenzamide]				0.3 to 1 µM	2 to 5 µM	< 0.6 µM
Cc1cc(N2CCCOCC2c2cc(NC(=O)C(F)(F)F)ccc2Cl)nc(N)n1 (single isomer, unassigned) [I-177, N-(3-(4-(2-amino-6-methylpyrimidin-4-yl)-1,4-oxazepan-3-yl)-4-chlorophenyl)-2,2,2-trifluoroacetamide]				< 0.3 µM	< 0.6 µM	< 0.6 µM
Cc1cc(N2CCCOC[C@@H]2c2ccc(NC(=O)C3CC3)cc2Cl)nc(N)n1 (single isomer, unassigned) [I-207]				< 0.3 µM	< 0.6 µM	< 0.6 µM
